Molecules are shown by their SMILES. Entries after “also recorded” stand apart in the source; their conditions may differ.

The subject of test [1] is Gi proteins (inhibition of adenylyl cyclase activity in osteoblasts). The experiment in a line: cAMP accumulation assay in osteoblasts, Gpp(NH)p as agonist. It is filed as cell-based, human. Conditions: forskolin-stimulated. The procedure: The functionality of Gi proteins was assessed by investigating their ability to inhibit adenylyl cyclase activity in osteoblasts. To obtain inhibition curve of cAMP production the non-hydrolysable analogue of GTP, Gpp(NH)p (guanilyl 5′-imidophosphate, Sigma™) was added to the forskolin-containing samples in concentrations ranging from 10 nM to 100 μM. The cAMP content was determined as described above in similar assays with melatonin.
The values reported in FIG. 8 were detected after the administration of 10^−9M Gpp(NH)p, a GTP non-hydrolysable analogue.
Background: Changes in cAMP serve as a functional read-out for many G protein-coupled receptors.

Test [2] concerns forskolin-stimulated adenylyl cyclase activity in osteoblasts. The experiment in a line: cAMP accumulation assay in osteoblasts, melatonin as agonist. Type of test: cell-based, human. The procedure:
Osteoblasts from patients with AIS and control subjects were seeded in quadruplet on 24-wells plate (1×10^5 cells/well) and incubated either with the vehicle alone, dimethyl sulphoxide (DMSO, Sigma™, Oakville, ON, Canada) or the diterpene forskolin (10^−5M, Sigma™) to stimulate the cAMP formation. Inhibition curves of cAMP production were generated by adding melatonin to the forskolin-containing samples in concentrations ranging from 10^−11M to 10^−5M in a final volume of 1 ml of DMEM media with 0.5% bovine serum albumin (BSA, Sigma™). After a 30-minute incubation at 37° C., the cells were lysed and the sample centrifuged at 4° C. The cAMP content was determined in 200 μl aliquot of the supernatant using an enzyme immunoassay kit (Amersham-Pharmacia Biosciences, Mississauga, ON, Canada). All assays were performed in duplicate.
A method of screening of the present invention was performed and identified estrogen as one compound able to modulate the melatonin-signaling pathway impairment in AIS patients. Experiments were performed showing the effect of increasing concentrations of melatonin (10^−11 to 10^−5M) used as known agonist of melatonin-signaling pathway on forskolin-stimulated adenylyl cyclase activity in osteoblasts from two patients with AIS (group 3 see Table 2) treated or not with a physiological dose of estradiol (10^−10M). Results illustrated in panels A and B of FIG. 19 correspond to AIS patient numbered 13 and 29 in Table 1, respectively.

Test [3] relates to Gi proteins coupled to MT1 and MT2 receptors. The experiment in a line: Co-immunoprecipitation of Gi proteins coupled to melatonin receptors and their phosphorylation state. It is filed as cell-based, human. As to conditions: for phosphorylated forms of Gi3 and Gi2 in MT1 or MT2 immune complexes: overnight treatment of the cells. As to the method: Co-immunoprecipitation assays were performed with anti-MT1 and anti-MT2 specific antibodies (kind gifts of Dr Debora Angeloni and Prof Franco Fraschini, University of Milan, Italy) to identify Gi proteins coupled to individual melatonin receptor in human MG-63 osteoblasts (FIG. 9).
The specific antibodies were incubated with membrane fractions purified from osteoblasts untreated and treated with melatonin (10^−9M), genistein or herbimycin (1 μM, tyrosine kinase inhibitors, Sigma™) or sodium orthovanadate, Na3VO4, (1 mM, tyrosine phosphatase inhibitor, Sigma™) for at least 16 h. Presence of coupled Gi proteins in respective immune-complexes were determined by SDS-PAGE and Western blot with specific Gi antibodies (Santa Cruz Biotechnology Inc., Santa Cruz, Calif., USA) and phosphorylation status of these coupled Gi proteins were determined using anti-phosphoserine, phosphothreonine and phosphotyrosine antibodies (Sigma™) using the same membrane after stripping. Purified recombinant Gi proteins were used as control for antibody specificity.

Another test deals with human osteoclasts. The test can be described thus: Osteoclast pit resorption assay on bone matrix. Type of test: cell-based. As to the method:
The inhibitory effect of melatonin on osteoclasts activity was performed using normal human osteoclasts derived from peripheral blood. Mel, melatonin; luz, luzindole, a specific MT2 antagonist;
Other functional assays with melatonin using osteoclasts derived from monocytes/lymphocytes fraction isolated from peripheral blood of AIS patients and control subjects are performed. Primary osteoclasts are derived from the peripheral blood of patients and non-scoliotic subjects using 10 ml of blood or less. Anticoagulant-treated blood is layered on the Ficoll-Paque™ solution and centrifuged for a short period of time. Differential migration during centrifugation results in the formation of layers containing different blood cells. Because of their lower density, the lymphocytes are found at the interface between the plasma and the Ficoll-Paque™ with other slowly sedimenting particles (platelet and monocytes). The lymphocytes are then recovered from the interface and subjected to a short washing step with a balanced salt solution to remove any platelets, Ficoll-Paque™ and plasma. The cells are then counted and seeded at high density (1×10^6 cells per cm^2) onto artificial bone or dentin matrix in α-MEM with 10% FBS and antibiotics. After a few days, cells that remain adherent will start to differentiate into osteoclasts, forming large multinucleate cells after 15-20 days.

The next test relates to human osteoblasts. The experiment in a line: Osteoblast proliferation assay ([3H]-thymidine incorporation). It is filed as cell-based. As to conditions: melatonin 10^-9M. The procedure: An assay was performed to compare the proliferation of osteoblasts of normal subjects with that of scoliotic patients. […]
For orientation: Dividing cells build labelled thymidine or BrdU into new DNA.

The test system of test [4] is scoliosis formation after pinealectomy. As to conditions: treatment after pinealectomy in both animal models (chicken, bipedal rats); cited from earlier work.
The subject of test [5] is MT1 receptor expression in MC3T3-E1 cells. The experiment in a line: RT-PCR expression analysis of melatonin receptors. It is filed as cell-based. Conditions: melatonin 10^-7M.
Protocol: RT-PCR were performed with specific primers corresponding to melatonin receptor subtypes, MT1 (panel A, FIG. 7), MT2 (panel B, FIG. 7) and OPN (panel C, FIG. 7) using 2 μg of RNA isolated every 2 h during a 24 h cycle from MC3T3-E1 cells treated (+) or not (−) with melatonin (10^−7M). […] PCR products were separated on a 1.5% agarose gel and visualized by ethidium bromide staining.
A short description of test [6]: Bone mineral density (DEXA) in pinealectomized chicken. Type of test: in vivo. Conditions: melatonin 3 mg/kg/day ip. The procedure:
Treatment with melatonin, 3 mg/kg/day ip, increased BMD in treated animals. […]

The subject of test [7] is forskolin-stimulated adenylyl cyclase activity in myoblasts. The experiment in a line: cAMP accumulation assay in skeletal myoblasts, melatonin as agonist. It is filed as cell-based, human. Conditions: myoblasts from AIS patients. As to the method: The functionality of melatonin signaling is assessed by investigating the ability of Gi proteins to inhibit stimulated adenylyl cyclase activity in intact skeletal myoblasts. Cells prepared from patients with AIS and control subjects are seeded in quadruplet on 24-wells plate (1×10^5 cells/well) and incubated either with dimethyl sulphoxide (DMSO, Sigma™) or forskolin (10^−5M, Sigma™) to stimulate the cAMP formation. To obtain the inhibition curve of cAMP production, melatonin is added to the forskolin-containing samples in concentrations ranging from 10^−11M to 10^−5M in a final volume of 1 ml of DMEM media with 0.5% bovine serum albumin (BSA). After a 30-minute incubation at 37° C., the cells are lysed and the sample centrifuged at 4° C. The cAMP content is determined in 200 μl aliquot of the supernatant using an enzyme immunoassay kit (Amersham-Pharmacia Biosciences).

The test system of test [8] is osteocalcin (OC), osteopontin (OPN) and bone sialoprotein (BSP). The test can be described thus: Expression analysis of osteoblast terminal differentiation markers. Conditions: osteoblasts in vitro. Type of test: cell-based.

Turning to `Nc1nc2c(ncn2[C@@H]2O[C@H](COP(=O)(O)OP(=O)(O)NP(=O)(O)O)[C@@H](O)[C@H]2O)c(=O)[nH]1` [Gpp(NH)p, guanilyl 5′-imidophosphate], in test [1] (osteoblasts from a majority of AIS patients), the “inhibitory effect on cAMP levels” value is “no inhibitory effect”. Besides, in [1] (osteoblasts from control subjects), the “effect on cAMP levels” value is listed as “reduced cAMP levels”.

For the molecule `C[C@]12CC[C@@H]3c4ccc(O)cc4CC[C@H]3[C@@H]1CC[C@@H]2O` [estradiol], the “effect on the inhibitory effect of melatonin on forskolin-stimulated adenylyl cyclase activity” value in test [2] (osteoblasts from two AIS patients (group 3), estradiol 10^-10M, melatonin 10^-11 to 10^-5M) is “further block the inhibitory effect of melatonin”.

For the molecule `O=c1c(-c2ccc(O)cc2)coc2cc(O)cc(O)c12` [genistein], the “phosphorylated forms of Gi3 and Gi2 in MT1 or MT2 immune complexes” value in test [3] is listed as “completely abolished the presence of both phosphorylated forms”.

For the molecule `CC(=O)NCCc1c(Cc2ccccc2)[nH]c2ccccc12` [luzindole], the “effect on the inhibition of osteoclasts resorption activity by melatonin” value with human osteoclasts (normal human osteoclasts, luzindole added with melatonin) was “prevents or reduces the inhibitory effect of melatonin”.

Consider `COc1ccc2[nH]cc(CCNC(C)=O)c2c1` [melatonin], for which the “osteoblast growth rate ([3H]-thymidine incorporation)” value in the test with human osteoblasts (normal osteoblasts) is “increases linearly”; in the test with human osteoblasts (osteoblasts from scoliotic patients), “did not respond”. In addition, the “formation of scoliosis after pinealectomy” value in test [4] is “prevented the formation of scoliosis”. Besides, in [5], the “MT1 receptor subtype expression (RT-PCR)” value is “down regulated”. For the same molecule, the “binding of Gi3 and Gi2 proteins to MT2 receptors” value in test [3] (osteoblast purified membranes, in presence of melatonin) was “increased”. For the same molecule, in test [3], the “phosphorylated forms of Gi3 and Gi2 in MT1 or MT2 immune complexes” value is on record as “completely abolished the presence of both phosphorylated forms”. Also, in test [6], the “bone mineral density (BMD)” value is given as “increased BMD”. Further, the osteoclasts resorption activity result in the test on human osteoclasts (normal human osteoclasts derived from peripheral blood, melatonin 10^-9M to 10^-7M) was “inhibits osteoclasts resorption activity”. In addition, the “resorbing activity of osteoclasts” value in the test with human osteoclasts (osteoclasts isolated from animals with AIS or related syndrome, reasonably predicted) is recorded as “does not affect resorbing activity”. The “inhibition of cAMP accumulation induced by forskolin” value is given as “incapacity of melatonin to inhibit cAMP accumulation” in test [7] (melatonin 10^-11 to 10^-5M, preliminary tests) and “able in 2 cases to inhibit cAMP accumulation” in [7] (supra pharmacological dose 10^-5M). For the same molecule, the “effect on cAMP accumulation” value in [2] (AIS group 1 osteoblasts) is reported as “increased cAMP accumulation”. Also, the “inhibition of cAMP accumulation” value in [2] (AIS group 2 osteoblasts, even at 10^-7M or 10^-5M melatonin) is recorded as “no significant inhibition; also recorded: did not respond”; in test [2] (AIS group 3 osteoblasts, physiological dose 10^-9M), “no significant inhibition”. Also, the “response toward melatonin treatment (cAMP)” value in test [2] (AIS group 3 osteoblasts) is “weak response”. For the same molecule, the “inhibitory effects on adenylyl cyclase activity” value in [2] (AIS group 3 osteoblasts, higher doses of melatonin) is recorded as “some significant inhibitory effects”. Besides, the “reduction of cAMP levels (inhibition of forskolin-stimulated adenylyl cyclase activity)” value in [2] (osteoblasts from control subjects, forskolin 10^-5M, melatonin 10^-11M to 10^-5M, dose-dependent) is listed as 60-70%. Besides, the “inhibition of forskolin-stimulated adenylyl cyclase activity” value in test [2] (osteoblasts from patients with AIS) is listed as “lack of inhibition”. In addition, in test [8], the “expression of osteoblast terminal differentiation markers OC, OPN and BSP” value is reported as “up-regulates”.

The record behind these values is US8652791B2, “Method of classifying human subjects having adolescent idiopathic scoliosis (AIS) and method for screening for a compound useful in the treatment of AIS and related syndromes causing spinal deformities” (Hopital Sainte-Justine, priority 2002, dated 2014).
